Non-standard residues stand in square brackets, D forms with d. Residues, ends and D or L forms follow the SMILES beside them.
Legend:
[1] = Pharmacokinetic concentration-time profiles and parameters after i.v. and p.o. administration; assay type: in vivo, C57Bl/6N mice; conditions: mice; for Cmax, brain / Cmax, plasma: 3H-label LSC; for Cmax, plasma: 3 mice/time point; for AUC %ID,0 - 1440, plasma: non-compartmental analysis
Protocol: The pharmacokinetic profiles were investigated in 180 male C57Bl/6N mice aged 13-14 weeks, weighing about 27.4 g in average. Mice were ordered at Charles River (Germany) and housed at least one week under standard housing conditions (12/12 h light-dark cycle, approximately 22°C room temperature and 54% humidity; water and food available ad libitum) in the animal facility of the Forschungszentrum Jülich GmbH before the experiments were carried out. All animal experiments were approved by the Animal Protection Committee of the local government according to the German Protection of Animals Act (LANUV, North-Rhine-Westphalia, Germany, Az.84-02.04.2017.A029).
To determine the concentration-time profiles of ANK6, tANK6, and cANK6r in murine brain, plasma, liver, kidney, and cerebrospinal fluid (CSF) after i.v. and p.o. administration, mixed solutions of non-labelled and ^3H-labelled peptides were prepared. The administered solutions contained 1 mg/mL (i.v.) or 3 mg/mL (p.o.) of the respective D-peptide including small amounts of ^3H-labelled peptides (0.54μg/mL ^3H-ANK6, 1.79μg/mL ^3H-tANK6, or 0.98μg/mL ^3H-cANK6r). Doses were administered by body weight: i.v. 3.3 mg/kg, ANK6 & tANK6 p.o. 10 mg/kg, cANK6r p.o. 15 mg/kg. Three male C57Bl/6N mice aged 13-14 weeks were investigated per time point whereby individual outliers were excluded from further evaluation. Organs were harvested as follows: i.v. 5, 10, 30, 60, 120, 240, 360, 1080, 1440 min; p.o.: 10, 20, 30, 60, 120, 240, 360, 1080, 1440 min.
Animals whose CSF was not extracted were anesthetized with isoflurane (cp-pharma, Germany) inhalation approximately 2 min before each organ harvesting time point. Afterwards, blood was taken by cardiac puncture and the heparinized blood was centrifuged (3000 g, 5 min, 4°C) to get plasma. The plasma in the supernatant was separated and 1:1 diluted with PBS. The right brain hemisphere, 200 mg of the big liver lobe, and the right kidney were removed, weighed, and homogenized in 500μL PBS (Precellys Ceramic Kit 1.4 mm, Precellys 24, Bertin technologies SAS, France). 100μL of the diluted plasma, the homogenized brain, liver, or kidney (in triplicates), or 1–5μL (exactly determined) of the extracted CSF (extraction procedure see below, single determination) were mixed with 10 mL scintillation cocktail (Ultima Gold XR, PerkinElmer, USA). The mixture was incubated overnight (100 rpm, room temperature).
Animals whose CSF was extracted (organ harvesting time points: 60 min, 240 min, 1440 min) were i.p. anesthetized with ketamine/medetomidine approximately 20 min before each sampling time point. When the mouse was in deep narcosis, the cisterna magna was laid free and punctuated with a small capillary to extract about 5μL of CSF as described before. Afterwards, cardiac puncture, organ extractions, and sample preparations were performed as described above.
Quantification of the amount of ^3H-labelled D-peptides was performed with a LSC and the results (dpm/sample) were converted into mg/mL or % injected dose (% ID)/mL for plasma and for CSF, or in mg/g or % ID/g for brain, liver, and kidney as described before. Total peptide concentrations in the samples were back-calculated from the measured ^3H-labelled peptides’ radioactivity as described before [[20, 25, 26, 29]].
The determined peptide concentrations were plotted over time to allow for comparison of all peptides’ uptake into brain, plasma, liver, kidney, and CSF. Concentrations at 0 min were set to 0 % ID/mL or 0 % ID/g except for plasma concentrations after i.v. administration. There, concentrations were linearly back-extrapolated based on the first two measured time points (5 min, 10 min).
To calculate the pharmacokinetic parameters of ANK6, tANK6, and cANK6r for plasma and brain, concentration-time profiles were analyzed. […]

[2] = Cell viability assay (MTT), Aβ1-42-induced cytotoxicity; assay type: cell-based, rat; conditions: PC12 cells, MTT, 1 μM oligomeric Aβ1-42, peptide 0.008-15 μM, overnight 37°C, quintuplicates, logistic fit; read-out: IC50, reduction of Aβ1-42-induced cytotoxicity (cell viability)
Protocol: The cells (10,000 cells/well) were incubated on collagen coated 96 well plates (Gibco, Life Technologies, # A11428-03) for growth in adherent cell culture (24 h, 37°C). Oligomeric Aβ was generated by incubating monomeric Aβ1 - 42 in sodium phosphate buffer (10 mM Na2HPO4/NaH2PO4, pH 7.4) at 21°C and 600 rpm agitation for 4.5 h. […] Absorbance readout was detected with a Polarstar Optima plate reader (BMG, Germany) at 570 and 660 nm. The relative cell viability [%] was calculated by normalizing the absorbance readout to the positive control (PC12 cells incubated with buffer). The IC50 value was determined by plotting the relative cell viability [%] against the respective D-peptides' concentrations. Datasets were fitted by nonlinear regression (logistic fit; OriginPro 9.0G).

[3] = Blood-brain barrier values (logBB, Kin, Vi, PS); assay type: in vivo, C57Bl/6N mice; conditions: mice
Protocol: To allow for direct comparison with other peptides, four universally applied BBB parameters were determined: the blood-brain equilibrium distribution (logBB), the […] influx rate constant (Kin), the initial distribution volume in brain (Vi), and the permeability surface-area product (PS). Based on data of the concentration-time profiles and pharmacokinetic parameters after i.v. administration, the BBB parameters were calculated with the help of the formulas listed in Table 2. Graphical determination of Kin and Vi was conducted by plotting the brain concentration to plasma concentration ratio at certain time points (Cb (t)/Cp (t) [mL/g]) on the y-axis against the exposure time (AUCp (t)/Cp (t) [min]) on the x-axis. The linear range for Kin and Vi determination was between 0 and 240 min for ANK6 and cANK6r (R^2: 0.9970, 0.9996) and between 0 and 1440 min for tANK6 (R^2: 0.9758). PS was calculated on the basis of a murine cerebral blood flow (CBF) of 1.07 mL/(g*min).

[4] = p.o. 10 mg/kg (ANK6, tANK6) or 15 mg/kg (cANK6r)

For `CC[C@@H](C)[C@@H](NC(=O)[C@@H](CCCNC(=N)N)NC(=O)[C@@H](CCCCN)NC(=O)[C@H](N)CCCNC(=N)N)C(=O)N[C@H](CCCNC(=N)N)C(=O)N[C@H](CC(C)C)C(=O)N[C@@H](C(=O)N[C@@H](C(=O)N[C@H](CCCCN)C(=O)N[C@H](CCCCN)C(=O)N[C@H](CCCCN)C(=O)N[C@H](CCCNC(=N)N)C(N)=O)[C@H](C)O)C(C)C` [ANK6] (H-[dR][dK][dR][dI][dR][dL][dV][dT][dK][dK][dK][dR]-NH2; N-terminus assumed), the “peptide concentration detected in the blood” value ([1]; 4 h after single oral administration of 10 mg/kg) was 0.01 µM, the CSF levels ([1]; about 60 min after both types of administration (i.v., p.o.)) was “Extraordinary high CSF levels” and the “AUC %ID,0 - 1440, brain” value ([1]; i.v. 3.3 mg/kg) was 35.8 min*% ID/g. For the same molecule, the “CL, terminal plasma clearance” value ([1]; i.v. 3.3 mg/kg) was 32.0 mL/min/kg, the “MRT, plasma” value ([1]; i.v. 3.3 mg/kg) was 3 h and the “t1/2, terminal half-life, plasma” value ([1]; i.v. 3.3 mg/kg) was 15 h. The “tmax, brain” value ([1]; i.v. 3.3 mg/kg) was 0.083 h, the “tmax, plasma” value ([1]; i.v. 3.3 mg/kg) was 0 h and the “λz, terminal elimination rate constant, plasma” value ([1]; i.v. 3.3 mg/kg) was 0.00077 min⁻¹. The “Cmax, brain” value ([1]; i.v. 3.3 mg/kg) was 0.07 % ID/g, the “Cmax, plasma” value ([1]; i.v. 3.3 mg/kg, back-extrapolated to 0 min) was 3.17 % ID/mL and the “AUC %ID,0 - 1440, plasma” value ([1]; i.v. 3.3 mg/kg) was 91.7 min*% ID/mL. For the same molecule, the “AUC %ID,0 - 1440, brain” value [1, 4] was 11.0 min*% ID/g, the “CL, terminal plasma clearance” value [1, 4] was 174.5 mL/min/kg and the “MRT, plasma” value [1, 4] was 10 h. For the same molecule, the “t1/2, terminal half-life, plasma” value [1, 4] was 22 h, the “tmax, brain” value [1, 4] was 1 h and the “tmax, plasma” value [1, 4] was 2 h. The “λz, terminal elimination rate constant, plasma” value [1, 4] was 0.00054 min⁻¹, the “F (AUC %ID), oral bioavailability” value ([1]; p.o. 10 mg/kg (ANK6, tANK6) or 15 mg/kg (cANK6r) versus i.v. 3.3 mg/kg, plasma AUC %ID) was 11.8% and the “Cmax, brain” value [1, 4] was 0.01 % ID/g. The “Cmax, plasma” value [1, 4] was 0.02 % ID/mL, the “AUC %ID,0 - 1440, plasma” value [1, 4] was 10.8 min*% ID/mL and the IC50 [2] was 11.2 µM. For the same molecule, the “logBB, blood-brain equilibrium distribution” value ([3]; after i.v. administration 3.3 mg/kg, log(AUClast,br/AUClast,pl)) was “–0.401”, the “PS, permeability surface-area product” value ([3]; after i.v. administration, CBF 1.07 mL/(g*min)) was 0.0003 mL/g/min and the Vin ([3]; after i.v. administration, graphical determination (initial distribution volume in brain)) was 0.0575 mL/g. For the same molecule, the “Kin, unidirectional influx rate constant” value ([3]; after i.v. administration, graphical determination, linear range 0-240 min (ANK6, cANK6r), 0-1440 min (tANK6)) was 0.0003 mL/g/min.
